These results are taken from patent US10265274B2, “Formulations and kits for forming bioadhesive matrices” (Technology Innovation Momentum Fund (Israel) Limited …, priority 2012, dated 2019).

One series relates to Fibroblast cells. As to the kind of experiment: Cytotoxicity test, Alamar Blue reduction. The class given is cell-based. The conditions noted are these: fibroblasts, 24 hours, relative to control cells. The procedure: Fibroblast cells (14th passage) were thawed and cultured in […] flasks with culture medium at 37° C., humidified atmosphere and 5% CO2. The cells were cultured with modified Eagle's medium supplemented with 10% fetal bovine serum, 1% L-glutamine and 0.1% penicillin-streptomycin-nystatin. At confluence of 70% (at passages 16-19) the cells were separated using incubation for 3 minutes with 1 ml trypsin A, the free cells were added to the culture medium and seeded in a 6 well plate.
When confluence of 70% was reached the medium was replaced by 2 ml of medium containing 10% v/v Alamar blue for 4 hours of incubation. Thereafter, two 100 μL samples were taken from each well and inserted to a 96 well plate. The plate was inserted for analysis at a spectrophotometer (Spectra max 340 PC384, Molecular Devices) at 570 and 600 nm.
Two experiments were carried out, at first each component of the bioadhesive were inserted separately to a test tube containing 4 ml medium and incubated for 24 hours and then that medium was added to the cells instead of the medium containing Alamar Blue. In the second experiment, the medium with Alamar Blue was replaced with 4 ml of fresh medium and 0.1 ml of bioadhesive was added to the medium and incubated for 24 hours followed by another reading using Alamar Blue.
The reduction of Alamar Blue's absorption was calculated using the manufacturer's protocol, namely Alamar Blue reduction=(ε600A^t570−ε570A^t600)/(ε570A^c600−ε600A^c570), wherein ε570 and ε600 are the molar extinction coefficients of oxidized Alamar Blue at 570 nm and 600 nm respectively, A^t and Ac are the absorbance of test and control respectively at 570 nm and 600 nm respectively, whereas the control is taken as the medium with Alamar blue but without any cells.
(In general: Resazurin is reduced to fluorescent resorufin, in cell work by metabolically active cells.)

The conditions of series [1]: cited from earlier work.

The structures appear in SMILES notation. Structures can show the parent of a compound that is named as a salt.

One may read the cell viability as the share of living cells, or the viability signal relative to a control. A lower cell viability goes with a greater loss of cells. As for `CC(C)Cc1ccc(C(C)C(=O)[O-])cc1.[Na+]` (centres unmarked) [ibuprofen, Ibuprofen sodium salt], the cell viability with Fibroblast cells (aqueous drug solution 2% w/v) worked out at 93.5%; in the series on Fibroblast cells (aqueous drug solution 3% w/v) it was 79.7%.

Turning to `CCCCN1CCCCC1C(=O)Nc1c(C)cccc1C` (centres unmarked) [bupivacaine, Bupivacaine hydrochloride], in series [1], the “isoelectric points (pKa)” value is on record as 8.1-8.4. Moreover, the figures for the cell viability with Fibroblast cells (aqueous drug solution 2% w/v) and in the series on Fibroblast cells (aqueous drug solution 3% w/v) were 67.6% and 58.8%, respectively.
